Measured values taken from patent publication US20030165919A1, “Method for the analysis of exogenic and endogenic cell activiation based on measuring the aggregation of receptors” (priority 2000, published 2003).

What was measured:
CD11b and CD14 = molecular target: T1, CD11b and CD14 (Homo sapiens, UniProt P08571); assay: FRET flow cytometry: co-assembly of CD11b and CD14 on monocytes; type: cell-based; details: for co-assembly of CD11b and CD14 (energy transfer between monoclonal antibodies): human monocytes in whole blood, stimulation with the substance alone, 37° C. 15 minutes
T1 construct: endogenous in cells; host or cells: human monocytes in heparinised whole blood (healthy donors and patients)
T1 sequence (P08571 20-345 limits assumed): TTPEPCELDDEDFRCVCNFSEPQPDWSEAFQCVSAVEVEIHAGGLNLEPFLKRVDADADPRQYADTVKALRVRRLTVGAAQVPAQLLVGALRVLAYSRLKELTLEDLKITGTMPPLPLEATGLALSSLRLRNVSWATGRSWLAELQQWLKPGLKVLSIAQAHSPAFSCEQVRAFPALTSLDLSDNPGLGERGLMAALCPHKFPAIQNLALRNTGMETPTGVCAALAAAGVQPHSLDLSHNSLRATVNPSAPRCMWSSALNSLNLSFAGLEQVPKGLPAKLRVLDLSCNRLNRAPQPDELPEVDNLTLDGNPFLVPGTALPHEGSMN
Experimental: (§1) Aliquots […] of whole blood were incubated with the following stimulatory compounds at 37° C. for 15 minutes: LPS of Salmonella minnesota (0.1-10 nM, Mw 10 kDa), ceramide (primarily stearic acid and nervonic acid) and sulfogalactosyl ceramide (SG-cer, […]), both of which tested LPS free in the LAL assay (Cer, 1 nM-5.5 mM), lysophosphatidyl choline (lyso-PC, 10 mM), phorbol-12-myristate-13-acetate (PMA, 1 mM), N-formyl-L-methionyl-L-leucyl-L-phenyl alamine (fMLP, 1 mM), PE, PC, PI and PS liposomes (10 mm) which had been prepared as described above. All reagents were obtained from Sigma. In addition, the cells were stimulated with HPS70 (7 nM), dHSP70 (7 nM) and SG-cer+dHSP70 (40 nM+7 nM). After incubation, the cells were washed with cold PBS containing 0.1% of NaN3. The synthetic LPS antagonist lipid IVa (“compound-406”, 1-400 ng/ml) and lipid A derived from E. coli (1-100 ng/ml) were made available by courtesy of Dr. S. Kusumoto. The cells were pre-incubated with the LPS antagonist at 37° C. for 15 minutes and then stimulated with LPS at the same temperature (without washing).
Whole blood cells which had been stimulated or washed ex vivo […] were incubated on ice for 15 minutes with saturation concentrations of monoclonal fluorochrom-conjugated or biotinylated antibodies. The monoclonal antibodies CD11a (clone 25.3.1), CD16a (clone 3G8). CD18 (clone 7E4), CD14 (clone RMO52), CD33 (clone My9-RD1). CD81 (clone Js64) were obtained as R-phyco-erythrine (R-PE) conjugates and CD25 (clone B1.49.9) in biotinylated form from Coulter/Immunotech (Krefeld, Germany). CD11b (clone d12), CD11c (clone S-HCL-3), CD36 (clone CB38), CD47 (clone B6H12), CD81 (clone JS-81) and (Cd55 (clone IA10) in biotinylated form and Streptavidin-R-PE were purchased from Becton/Dickinson/Pharningen (Heidelberg, Germany) CD18 (clone IB4) in biontinylated form and CD40 (clone EA-5) as R-PE conjugate were obtained from Alexis (Grünberg, Germany) and CD14 (clones ×8 and Uchml) and CD3 (clone Cris-7) in biotinylated form and Streptavidin-Cy5 (Sa-Cy5) from Dianova (Hamburg, Germany), CD32 (clone C1KM5) and CD64 (clone 10.1) were obtained as R-PE conjugates from Caltag (Burlingame, U.S.A.) and CD91 (clone 8G1) in biotinylated form from Proen (Heidelberg, Germany). A monoclonal anti-TLRA antibody (clone HTA125) was kindly provided by Dr. Kensuke. Since no energy transfer between the antibodies directed against the CD14/CD11a and CD14/CD11c pairs was detectable either on resting or on stimulated cells, these antibody combinations were not characterised further.
Lysis of erythrocytes and washing were carried out as described (Rothe et al., Thromb. Vasc. Biol. 16 (1996), 1437-1447). After the last washing step, the samples were divided and part of each sample incubated with a saturating amount of SA-Cy5 on ice for 15 minutes and washed before measuring.
For energy transfer experiments, […] aliquots of whole blood were treated with cholesterol/methyl cyclodextrine (C/C) (100 mg/ml/4.6 mg/ml) or 2-hydroxypropyl-β-cyclodextrine (0.15 mg/ml) at 37° C. for 30 minutes and then stimulated further with LPS (4 nM) or ceramide (40 nM) as described above. The energy transfer between CD14 and CD11b was measured.
A “FACSCalibur” flow cytometer (Becton Dickinson) equipped with an air-cooled 15 mW argon laser (excitation wavelength 488 nm), a diode laser (excitation wavelength […]) and standard filters [channel 1 (FITC): 530/30 nm band pass filter; channel 2 (R-PE being used as donor dye); 585/47 nm band pass filter; channel 3 (PerCP): pass having a length of >670 nm; and channel 4 (Cy5being used as recipient dye): 661/16 nm bad pass filter] was used. The Cellquest software (Becton Dickinson) was used for the measurements. […] Measurement was conducted without compensation. 50,000 leukocytes were required in the “list” modus, forward scattering (FSC) being used as a trigger signal. […]

[1] = molecular target: T2, receptor cluster comprising CD14 (Homo sapiens, UniProt P08571); assay: FRET with a series of antibody pairs: receptor cluster comprising CD14 on monocytes; type: cell-based; details: stimulation of the cells as control
T2 construct: endogenous in cells; host or cells: human monocytes in whole blood
T2 sequence (P08571 20-345 limits assumed): T1 sequence (P08571 20-345 limits assumed)
Experimental: as §1
Whole blood cells which had been stimulated or washed ex vivo […] were incubated on ice for 15 minutes with saturation concentrations of monoclonal fluorochrom-conjugated or biotinylated antibodies. The monoclonal antibodies CD11a (clone 25.3.1), CD16a (clone 3G8). […]

human CD14 = molecular target: T3, human CD14 (Homo sapiens, UniProt P08571); assay: Binding of [14C]N-palmitoyl-D-sphingosine to CHO cells transfected with human CD14
T3 construct: expressed in transfected cells; host or cells: CHO cells (control: pPol-DHFR vector)
T3 sequence (P08571 20-345): T1 sequence (P08571 20-345 limits assumed)
Experimental: d. CHO cells transfected with human CD14 (-unlabelled ceramide)(●)+unlabelled ceramide (∘)) or with a pPol-DHFR vector (-unlabelled ceramide (▪)+unlabelled ceramide (□)) were incubated with the specified concentrations of [^14C]N-palmitoyl-D-sphingosine and the ^14C bound to the cells determined. Each data point represents the mean value ± SD of three measurements.
Cells transfected with human CD14 or the pPol-DHFR vector were grown as described recently (Stelter et al., Eur. J. Biochem. 238 (1996), 457-464). The cells were trypsinated, washed twice with PBS and then taken up in PBS containing 10% of human serum. CHO cells (4×10^5) were pre-incubated on ice in the presence of a 50 fold excess of unlabelled N-palmitoyl-D-sphingosine (Sigma) for 15 minutes in a final volume of […]. After that [^14C]N-palmitoyl-D-sphingosine (American Radiolabeled Chemicals Inc., St. Louis, Mo., U.S.A.) was added and the cells incubated for another 15 minutes. In order to remove non-bound activity, the cells were washed twice and then transferred to a fresh Eppendorf vessel. After repeated washing, the pellet was dissolved in […] of 1% SDS, 10 mM EDTA and then added to 3 ml of scintillation liquid. The amount of cell-bound radioactivity was determined by measuring the scintillation of the liquid.

| SMILES | co-assembly of CD11b and CD14 (energy transfer between monoclonal antibodies) (CD11b and CD14) | energy transfer between any of the antibody pairs [1] | inhibition of binding by 50-fold excess of unlabelled ligand (human CD14; CD14-transfected CHO fibroblasts) | binding to CD14-transfected CHO fibroblasts compared to vector-transfected cells (human CD14; cell-bound 14C, PBS with 10% human serum, on ice 15 minutes) | effect on LPS-induced co-association between CD14 and CD11b (CD11b and CD14; antagonist given in vitro 15 minutes before stimulation, LPS 4 nM + c-406 400 ng/ml) | effect on ceramide-induced co-association between CD14 and CD11b (CD11b and CD14; antagonist given in vitro 15 minutes before stimulation, ceramide 10 nM + c-406 100 ng/ml) |
| --- | --- | --- | --- | --- | --- | --- |
| CCCCCCCCCCCCCC(=O)O[C@@H]1[C@@H](C)[C@@]2(O)[C@@H](C=C(CO)C[C@]3(O)C(=O)C(C)=C[C@@H]23)[C@@H]2C(C)(C)[C@]12OC(C)=O [PMA, phorbol-12-myristate-13-acetate] | neither fMLP or PMA showed any effect | did not result in any significant energy transfer |  |  |  |  |
| CCCCCCCCCCCCC/C=C/[C@@H](O)[C@H](CO)N[14C](=O)CCCCCCCCCCCCCCC [[^14C]-N-palnitoyl-D-sphingosine, [^14C]N-palmitoyl-D-sphingosine] |  |  | could be inhibited by adding a 50-fold excess of unlabelled ligand | much higher when compared to vector-transfected cells |  |  |
| CCCCCCCCCCC[C@@H](O)CC(=O)N[C@H]1[C@H](OC[C@H]2O[C@H](OP(=O)(O)O)[C@H](NC(=O)C[C@H](O)CCCCCCCCCCC)[C@@H](OC(=O)C[C@H](O)CCCCCCCCCCC)[C@@H]2O)O[C@H](CO)[C@@H](OP(=O)(O)O)[C@@H]1OC(=O)C[C@H](O)CCCCCCCCCCC [compound-406] | did not induce co-assembly of the receptors CD14 and CD11b |  |  |  | reduced the LPS- or ceramide-induced co-association between CD14 and CD11b significantly | reduced the LPS- or ceramide-induced co-association between CD14 and CD11b significantly |
